By EC50 is commonly meant the concentration needed to bring the measured effect to its halfway point. For orientation: CC50 means the concentration giving 50% cytotoxicity. In general, logP refers to the decadic logarithm of the partition coefficient of the neutral form, usually between octanol and water. The low end stands for a more hydrophilic compound, the high end for a more lipophilic compound.

Structures are written as SMILES.

Data set [1] deals with Human immunodeficiency virus 1. The data set is described as follows: Antiviral activity against multidrug resistant HIV1 IIIB containing reverse transcriptase K103N and Y181C mutation infected in human MT2 cells assessed as cytoprotection from infection by MTT colorimetric method. It is filed as functional, organism-based. On the technique in general: Tetrazolium dyes change colour on reduction, which living cells bring about.

Data set [2] concerns Human immunodeficiency virus 1. The data set is described as follows: microbe, parasite or virus in culture. As to conditions: Human immunodeficiency virus 1, IIIB, MT2; call rule not given here.
In data set [3] the test system is Human immunodeficiency virus 1. Briefly: Antiviral activity against multidrug resistant HIV1 IIIB containing reverse transcriptase Y181C mutation infected in human MT2 cells assessed as cytoprotection from infection by MTT colorimetric method. It is filed as functional, organism-based.
Data set [4] deals with MT2. The data set is described as follows: (§1) Cytotoxicity in human MT2 cells assessed as inhibition of cell growth. It is filed as cell-based. As to conditions: mt2.
The nature of data set [5]: Octanol-water partition coefficient, log P of the compound. It is filed as physicochemical.
Data set [6] in a line: as §1. It is filed as cell-based. As to conditions: MT2 cells.
[7] abbreviates: Human immunodeficiency virus 1, IIIB, MT2, read-out: EC50.

With `N#Cc1ccc(Nc2ncc(Cc3c(F)cccc3F)o2)cc1`, the EC50 entry in data set [1] (mt2) is recorded as “Not Active”.
As for `N#Cc1ccc(Nc2ncc(Cc3c(F)cc(F)cc3F)o2)cc1Cl`, the values for the EC50 in data set [2], in data set [1] (mt2) and in data set [3] (setting [7]) were 9.1 nM, “Not Active” and 910 nM, respectively. The CC50 in data set [4] was 7 µM.
Turning to `Cc1cc(F)c(Cc2cnc(Nc3ccc(C#N)c(Cl)c3)o2)c(F)c1`, the EC50 was 11 nM in data set [2], 7200 nM in data set [1] (setting [7]) and 210 nM in data set [3] (setting [7]). In addition, the CC50 in data set [4] is 31 µM.
The matching figures for `CCc1cc(F)c(Cc2cnc(Nc3ccc(C#N)c(Cl)c3)o2)c(F)c1`: 1.3 nM, 210 nM, 6.9 nM and 10 µM.
For `CC(C)c1cc(F)c(Cc2cnc(Nc3ccc(C#N)c(Cl)c3)o2)c(F)c1`, the logP in data set [5] was 3.7. In addition, the 50% effective concentration (EC50) stood at 5.2 nM in data set [2], 120 nM in data set [1] (setting [7]) and 7.2 nM in data set [3] (setting [7]). Besides, the CC50 in data set [4] stood at 5 µM.
In data set [5], `N#Cc1ccc(Nc2ncc(Cc3c(F)cc(C4CC4)cc3F)o2)cc1Cl` displayed a logP of 3.3. Besides, the EC50 in data set [2] was found to be 24 nM; in data set [1] (setting [7]), 10700 nM; in data set [3] (setting [7]) it was 1500 nM. Besides, the CC50 in data set [4] was 65 µM.
Turning to `N#Cc1ccc(Nc2ncc(Cc3c(F)cc(CC4CC4)cc3F)o2)cc1Cl`, the EC50 in data set [2] was 68 nM; in data set [1] (setting [7]) it was 15000 nM; in data set [3] (setting [7]), 1200 nM. Also, in data set [4], the CC50 was found to be 29 µM.
The like results for `CCOc1cc(F)c(Cc2cnc(Nc3ccc(C#N)c(Cl)c3)o2)c(F)c1` were, in that order, 28 nM, 750 nM, 48 nM and 15 µM.
The like results for `COCc1cc(F)c(Cc2cnc(Nc3ccc(C#N)c(Cl)c3)o2)c(F)c1` were, in that order, 3.6 nM, 6300 nM, 690 nM and 15 µM.
Consider `CCc1cc(F)c(Cc2cnc(Nc3ccc(Oc4cccnc4)c(Cl)c3)o2)c(F)c1`, for which the EC50 in data set [2] turned out to be 5 nM; in data set [1] (setting [7]) it was 800 nM; in data set [3] (setting [7]), 60 nM. Further, the half-maximal cytotoxic concentration (CC50) in data set [4] came out at 5 µM.
For the compound `CC(C)(C)c1cc(Cl)c(Cc2cnc(Nc3ccc(C#N)c(Cl)c3)o2)c(Cl)c1`, the figures for the EC50 in data set [2], in data set [1] (mt2) and in data set [3] (mt2) were 1300 nM, “Not Active” and “Not Active”, respectively. Moreover, the CC50 in data set [4] is 6 µM.
Regarding `CCC(C)c1cc(F)c(Cc2cnc(Nc3ccc(C#N)c(Cl)c3)o2)c(F)c1` (racemic), the results for the EC50 in data set [2], in data set [1] (setting [7]) and in data set [3] (setting [7]) were 120 nM, 2800 nM and 150 nM, respectively. The CC50 in data set [4] was 40 µM.
On to `Cc1ccnc2c1NC(=O)c1cccnc1N2C1CC1` [NEVIRAPINE], for which the EC50 entry in data set [1] (mt2) and in data set [3] (mt2) was “Not Active” each time. Besides, the CC50 in data set [6] was above 100 µM.
